Legend:
Format in all cases: in vivo, mouse
[1] = tested on: 3×TG+/− mice; assay: Learning and memory tests (Morris water maze, novel object recognition) in 3×TG+/− mice; details: 12-15 months old 3×TG+/− mice, 3.2 mg/kg/day for one month; vs DMSO
Experimental: (§1) Genetically engineered mice of 12-15 months old, 3×TG+/− (Oddo et al., 2003), RyR2-E4872Q+/− (EQ+/−)(Chen et al., 2014), 3×TG+/−/RyR2-E48720+/− (3×TG+/−/EQ+/−), and WT littermates of both sexes were used. Sex differences, which may produce biological variables, were not investigated in this study. R-carvedilol (R-CV) (3.2 mg/kg/day) and vehicle control (DMSO) were delivered to 3×TG+/− mice in drinking water for one month. As shown previously, only heterozygous RyR2-E4872Q+/− mutant mice were produced as homozygous E4872Q+/+mutation is embryonic lethal (Chen et al., 2014). Functional RyR2s are tetrameric channels formed by 4 RyR2 monomers. The heterozygous E4872Q+/− mutant mice (harboring one WT allele and one E4872Q mutant allele) will produce a mixture of homo- and hetero-tetrameric channels that contain the WT, E48720 mutant, or both WT/E4872Q mutant monomers. Thus, the RyR2-E4872Q mutation can exert its negative impact not only on the function of the E4872Q homo-tetramers, but also on the function of the WT monomer in the WT/E4872Q hetero-tetrameric channels.
The learning and memory of mice with all genotypes were evaluated using the Morris water maze (MWM) test, the Barnes maze (BM) test, and/or the novel object recognition (NOR) test. Experiments were carried out blindly. For the MWM test, mice at different ages were trained to localize a hidden escape platform (10×10 cm) in a circular pool (116.84 cm in diameter, 50 cm in depth) (San Diego Instruments, CA) via distal visual cue. The platform was submerged 1-2 cm beneath the surface in water (22-24°C.), which was rendered opaque by addition of milk powder. The localization of the pool in relation to visual cues was maintained constantly during the entire task. The cues were distinct in color and shape. Digital division of the tracking area (pool) into four quadrants was performed by the SMART video tracking system, Smart 3.0 (Panlab Harvard Apparatus; Barcelona Spain). The escape platform was placed in the centre of the south-west quadrant for the entirety of the learning phase (4 training days) and digitally defined as target. Spatial training consisted of 4 days with 5 trials per mouse per day. Mice were released with their heads facing the pool wall at one of four entry locations (north, east, south and west) in a non-repetitive random order. Swimming was automatically video-tracked until the subject found the escape platform and remained on it (≥5 sec), or until a maximum of 60 seconds. […] In between trials (inter-trial interval ≥10 min), mice were housed in heated cages to avoid performance deficits due to exhaustion or hypothermia. The latency and swimming speed to reach the escape platform were recorded for comparison. After the learning phase, memory retention was evaluated by one probe trial 24 hours after the last training session. The escape platform was removed before mice were released from the north entry point into the pool. Their swimming was video-tracked for 60 seconds. […] The percentage of time mice spent in the target quadrant (including the target) were measured for comparison.
For the NOR test, mice were habituated for 10 min per mouse in an equally illuminated, odor-free, white, plastic box (40×40×50 cm^3) embedded with fresh aspen shavings and shreds. […] Mice were video recorded during this familiarizing phase. Side preferences was evaluated by dividing the time a mouse spent exploring one object by the time they spent at the other object. […]

[2] = tested on: 5×FAD+/− mice; assay: Learning and memory tests (Morris water maze, novel object recognition) in 5×FAD+/− mice; details: for learning and memory impairments (MWM, NOR): 4-6 months old 5×FAD mice
Experimental: Adult genetically engineered mice, 5×FAD^+/− (Oakley et al., 2006), RyR2-E4872Q^+/− (EQ^+/−) (Chen et al., 2014), 5×FAD^+/−/RyR2-E4872Q^+/− (5×FAD^+/−/EQ^+/−), and wildtype (WT) littermates of both sexes were used. R-carvedilol (R-CV) (at doses of 0.8, 1.6 or 3.2 mg/kg/day), racemic carvedilol (3.2 mg/kg/day), and vehicle control (DMSO) were delivered to 5×FAD^+/− mice in drinking water for one month, starting at different ages before (2-3 months old) or after (3-4 months old) the occurrence of AD pathologies (Oakley et al., 2006). To assess the effects of genetically and pharmacologically limiting RyR2 open time on the prevention and rescue of AD deficits in different stages (early, moderate, and late) of AD progression, animals at different ages (from 2-15 months) were used. As reported (Oakley et al., 2006), there was an age-dependence of AD progression in the 5×FAD^+/− mice. No sex-dependent differences in AD progression in these mice was observed. For 2-photon Ca^2+ imaging experiments, 5×FAD, RyR2 WT, and RyR2 mutant mice were cross-bred with the heterozygous Thy1-GCaMP6f transgenic mice (Chen et al., 2012; Chen et al., 2013) (GP5.17, JAX 025393) to express the GCaMP6f Ca^2+ sensing probe (driven by the Thy1 promotor) in hippocampal neurons in each of the genotypes used.
The learning and memory of mice with all genotypes were evaluated using the Morris water maze (MWM) test, the Barnes maze (BM) test, and/or the novel object recognition (NOR) test. Experiments were carried out blindly. For the MWM test, mice at different ages were trained to localize a hidden escape platform (10×10 cm) in a circular pool (116.84 cm in diameter, 50 cm in depth) (San Diego Instruments, CA) via distal visual cue. The platform was submerged 1-2 cm beneath the surface in water (22-24°C.), which was rendered opaque by addition of milk powder. The localization of the pool in relation to visual cues was maintained constantly during the entire task. The cues were distinct in color and shape. Digital division of the tracking area (pool) into four quadrants was performed by the SMART video tracking system, Smart 3.0 (Panlab Harvard Apparatus; Barcelona Spain). The escape platform was placed in the centre of the south-west quadrant for the entirety of the learning phase (4 training days) and digitally defined as target. Spatial training consisted of 4 days with 5 trials per mouse per day. Mice were released with their heads facing the pool wall at one of four entry locations (north, east, south and west) in a non-repetitive random order. Swimming was automatically video-tracked until the subject found the escape platform and remained on it (≥5 sec), or until a maximum of 60 seconds. […] In between trials (inter-trial interval ≥10 min), mice were housed in heated cages to avoid performance deficits due to exhaustion or hypothermia. The latency and swimming speed to reach the escape platform were recorded for comparison. After the learning phase, memory retention was evaluated by one probe trial 24 hours after the last training session. The escape platform was removed before mice were released from the north entry point into the pool. Their swimming was video-tracked for 60 seconds. The area at the location of the removed hidden platform was defined as the target and the south-west quadrant the target quadrant. The percentage of time mice spent in the target quadrant (including the target) were measured for comparison.
For the NOR test, mice were habituated for 10 min per mouse in an equally illuminated, odor-free, white, plastic box (40×40×50 cm^3) embedded with fresh aspen shavings and shreds. In between each mouse trial the box was wiped with ethanol to avoid odor-induced stress. 24 hours after habituation, two identical objects ware placed at equal distance to each other and the corners of the box. Each mouse was placed into the center, and allowed to move freely for 10 min. Mice were video recorded during this familiarizing phase. […]

[3] = tested on: hippocampal CA1 and subiculum neurons of 3×TG+/− mice; assay: Nissl staining, neuron density in 3×TG+/− mice; details: 12-15 months old 3×TG+/− mice, 3.2 mg/kg/day for one month; vs DMSO
Experimental: as §1
For the Nissl staining, paraffin-embedded brain tissue sections (5 μm) were immersed in xylene (5 min, 2 times), rehydrated in absolute ethanol (5 min, 2 times) followed by 95%, 75% and 50% solutions of ethanol in water (5 min each), then washed in distilled water for 2 times, 5 min each. […]

## COc1ccccc1OCCNC[C@@H](O)COc1cccc2[nH]c3ccccc3c12 [R-carvedilol, R-(+)-carvedilol]
[1]
  discrimination index in the NOR test: increased
  latency to the target platform in the MWM test: significantly shortened
  swimming speed in the MWM test: increased
  time spent in the target zone in the MWM test: increased
  walking velocity in the NOR test: increased
[2]; 1.6 mg/kg/day for one month, vs DMSO
  learning and memory impairments (MWM, NOR): rescued
[2]; 3.2 mg/kg/day for one month started at 2-3 months of age (before AD symptoms), tested at 3-4 months, vs DMSO
  memory loss / learning and memory deficits (MWM, NOR): prevented
[2]; 3.2 mg/kg/day for one month started at 3-4 months of age (after AD symptom), tested at 4-5 months, vs DMSO
  memory loss (MWM, NOR): rescued
[2]; 3.2 mg/kg/day for one month, vs DMSO
  learning and memory impairments (MWM, NOR): rescued
[2]; 0.8, 1.6, 3.2 mg/kg/day for one month, 5×FAD mice
  beneficial effect on learning and memory, dependence on dose: dose-dependent
[2]; 6-7 and 10-12 months old 5×FAD+/− mice (late stages of AD), 3.2 mg/kg/day for 1 month, vs DMSO
  memory deficits (MWM, NOR): rescued
[3]
  density of neurons in the hippocampal CA1 region: no significant difference
  density of neurons in the subiculum area: significantly higher

From patent publication US20230381139A1, “METHODS OF TREATING AND/OR PREVENTING ALZHEIMER’S DISEASE WITH R-CARVEDILOL” (priority 2020, published 2023)
